Data on 1 substance can be found in patent US12583895B2, “Polypeptides for restoring endothelial function and methods of use thereof” (Vanderbilt University, priority 2019, dated 2026).

Entries after “also recorded” stand apart in the source; their conditions may differ. Non-standard residues stand in square brackets, D forms with d. No end group written: not given here. pS = N[C@@H](COP(=O)(O)O)C(=O)O

In this assay the test system is rat aorta. In words: Carbachol-induced relaxation of anisomycin-treated rat aorta. In kind it is cell-based. Particulars: NiPp 500 μM 30 min pretreatment, then anisomycin 200 μM 1 h. Here is the method:
RA rings were suspended in a muscle bath and incubated with either buffer alone (Ctrl), Aniso (200 μM) for 1 h, or NiPp (500 μM) for 30 min followed by Aniso (200 μM) for 1 h. […] Proteins were extracted […] immunoblotted to examine p38MAPK phosphorylation. Quantification of relative phosphorylation to total p38MAPK level is shown. n=10, *p<0.05 in one-way ANOVA with Tukey post-test. NiPp restores endothelial dysfunction and reduced p38 MAPK phosphorylation induced by anisomycin in RA.
RA rings were suspended in a muscle bath and incubated with either buffer alone (Ctrl), Aniso (200 μM) for 1 h, or NiPp (500 μM) for 30 min followed by Aniso (200 μM) for 1 h. […] The force generated was determined and was adjusted to the weight and length of the tissue. Representative tracings from 1 out of 6 different rats are shown. […] Proteins were extracted and phosphorylation of p38 MAPK was determined by Western blot analysis. […] Data are expressed as mean±SD. […]
This produced the maximal force tension relationship as previously described. […] Contractile responses were defined by stress, calculated using force generated by tissues as follows: stress (×10^5 N/m^2)=force (g)×0.0987/area, where area=wet weight (mg)/at maximal length (mm)]/1.055.
Relaxation was calculated as percent change in stress compared to the maximal PE-induced contraction (set as 100%). […]

For the substance “YARAAARQARASPAARRA(pS)AILPG (YARAAARQARASPAARRA[pS]AILPG) [NiPp, Cell-permeant phosphopeptide mimetic of Niban: transduction domain … conjugated to the region surrounding serine 602 of Niban]”, the “endothelial-dependent relaxation (5×10^−7 M CCH) in anisomycin-treated rat aorta” value is “improved; also recorded: prevented; also recorded: restores”.
